{"source": "patent US8846653B2", "about": "“Delta-tocotrienol treatment and prevention of pancreatic cancer” (University of South Florida, priority 2006, dated 2014)", "format_in_all_cases": "cell-based, human", "key": {"BXPC3 cells": {"tested_on": "BXPC3 cells", "assay": "MTT assay of BXPC3 cultures, single 50 μM dose", "design": "MTT assay result, run 1 / MTT assay result, run 2 / MTT assay result, run 3 / MTT assay result, run 4 / MTT assay result, run 5 / MTT assay result, run 6 / MTT assay result, run 7 / MTT assay result, av (average) / MTT assay result, av-blank / MTT assay result, av: unit not given here", "conditions": "BXPC3, 50 μM; for MTT assay result, av-blank: average minus blank", "outline": "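Viability measured by MTT assay 48 or 120 hours after one 50 μM treatment with tocol-family compounds, geranylgeraniol, succinic acid or vehicle, with untreated cultures in parallel. BXPC3 cells grown in FBS-supplemented medium, 37° C, humidified 5% CO2.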"}, "[1]": {"tested_on": "SW1990 pancreatic cancer cells", "assay": "MTS assay of SW1990 cultures, single 50 μM dose", "conditions": "SW1990, 50 μM", "outline": "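MTS-based viability was measured 24, 48 or 72 h after a single 50 μM treatment; the agents were α/β/γ/δ-tocotrienol, α/β-tocopherol, tocopherol succinate, geranylgeraniol or succinic acid. The cells were SW1990, cultured in 10% FBS DMEM. Vehicle (ethanol-extracted olive oil) cultures ran in parallel as reference.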"}, "MiaPaCa-2 cells": {"tested_on": "MiaPaCa-2 cells", "assay": "MTT assay of MiaPaCa2 cultures, single 50 μM dose", "design": "rel amt (relative value set to the control): unit not given here", "conditions": "MiaPaCa2, 50 μM; for MTT assay result, av-blank: average minus blank; for MTT assay result, av: average of 7 runs", "outline": "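Viability measured by MTT 48 or 120 hours post-treatment, with a vehicle-only (ethanol-extracted olive oil) culture as control. MiaPaCa-2 cultures received one 50 μM exposure to a tocotrienol, tocopherol, tocopherol succinate, geranylgeraniol or succinic acid.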"}}, "data": [{"substance": "alpha tocotrienol [T3 alpha]", "values": [{"measurement": "rel amt (relative value set to the control)", "setting": "BXPC3 cells; 48 hours", "result": 104}, {"measurement": "MTT assay result, av-blank", "setting": "BXPC3 cells; 48 hours", "result": 0.236}, {"measurement": "MTT assay result, av (average)", "setting": "BXPC3 cells; 48 hours, average of 7 runs", "result": 0.285}, {"measurement": "MTT assay result, run 1", "setting": "BXPC3 cells; 48 hours", "result": 0.279}, {"measurement": "MTT assay result, run 2", "setting": "BXPC3 cells; 48 hours", "result": 0.275}, {"measurement": "MTT assay result, run 3", "setting": "BXPC3 cells; 48 hours", "result": 0.295}, {"measurement": "MTT assay result, run 4", "setting": "BXPC3 cells; 48 hours", "result": 0.301}, {"measurement": "MTT assay result, run 5", "setting": "BXPC3 cells; 48 hours", "result": 0.3}, {"measurement": "MTT assay result, run 6", "setting": "BXPC3 cells; 48 hours", "result": 0.273}, {"measurement": "MTT assay result, run 7", "setting": "BXPC3 cells; 48 hours", "result": 0.275}, {"measurement": "rel amt (relative value set to the control)", "setting": "BXPC3 cells; 120 hours (5 days)", "result": 97}, {"measurement": "MTT assay result, av-blank", "setting": "BXPC3 cells; 120 hours (5 days)", "result": 0.558}, {"measurement": "MTT assay result, av", "setting": "BXPC3 cells; 120 hours (5 days), average of 7 runs", "result": 0.613}, {"measurement": "MTT assay result, run 1", "setting": "BXPC3 cells; 120 hours (5 days)", "result": 0.584}, {"measurement": "MTT assay result, run 2", "setting": "BXPC3 cells; 120 hours (5 days)", "result": 0.637}, {"measurement": "MTT assay result, run 3", "setting": "BXPC3 cells; 120 hours (5 days)", "result": 0.594}, {"measurement": "MTT assay result, run 4", "setting": "BXPC3 cells; 120 hours (5 days)", "result": 0.63}, {"measurement": "MTT assay result, run 5", "setting": "BXPC3 cells; 120 hours (5 days)", "result": 0.62}, {"measurement": "MTT assay result, run 6", "setting": "BXPC3 cells; 120 hours (5 days)", "result": 0.61}, {"measurement": "MTT assay result, run 7", "setting": "BXPC3 cells; 120 hours (5 days)", "result": 0.618}, {"measurement": "rel amnt (relative value set to the control)", "setting": "[1]; 24 hours", "result": 121}, {"measurement": "MTS assay result, run 1", "setting": "[1]; 24 hours", "result": 0.168}, {"measurement": "MTS assay result, run 2", "setting": "[1]; 24 hours", "result": 0.183}, {"measurement": "MTS assay result, run 3", "setting": "[1]; 24 hours", "result": 0.175}, {"measurement": "MTS assay result, run 4", "setting": "[1]; 24 hours", "result": 0.148}, {"measurement": "MTS assay result, run 5", "setting": "[1]; 24 hours", "result": 0.195}, {"measurement": "MTS assay result, run 6", "setting": "[1]; 24 hours", "result": 0.176}, {"measurement": "MTS assay result, run 7", "setting": "[1]; 24 hours", "result": 0.206}, {"measurement": "MTS assay result, run 8", "setting": "[1]; 24 hours", "result": 0.172}, {"measurement": "MTS assay result, run 9", "setting": "[1]; 24 hours", "result": 0.178}, {"measurement": "rel amnt (relative value set to the control)", "setting": "[1]; 48 hours", "result": 116}, {"measurement": "MTS assay result, run 1", "setting": "[1]; 48 hours", "result": 0.168}, {"measurement": "MTS assay result, run 2", "setting": "[1]; 48 hours", "result": 0.162}, {"measurement": "MTS assay result, run 3", "setting": "[1]; 48 hours", "result": 0.16}, {"measurement": "MTS assay result, run 4", "setting": "[1]; 48 hours", "result": 0.146}, {"measurement": "MTS assay result, run 5", "setting": "[1]; 48 hours", "result": 0.175}, {"measurement": "MTS assay result, run 6", "setting": "[1]; 48 hours", "result": 0.205}, {"measurement": "MTS assay result, run 7", "setting": "[1]; 48 hours", "result": 0.2}, {"measurement": "MTS assay result, run 8", "setting": "[1]; 48 hours", "result": 0.187}, {"measurement": "MTS assay result, run 9", "setting": "[1]; 48 hours", "result": 0.175}, {"measurement": "rel amnt (relative value set to the control)", "setting": "[1]; 72 hours", "result": 61}, {"measurement": "MTS assay result, run 1", "setting": "[1]; 72 hours", "result": 0.279}, {"measurement": "MTS assay result, run 2", "setting": "[1]; 72 hours", "result": 0.282}, {"measurement": "MTS assay result, run 3", "setting": "[1]; 72 hours", "result": 0.29}, {"measurement": "MTS assay result, run 4", "setting": "[1]; 72 hours", "result": 0.238}, {"measurement": "MTS assay result, run 5", "setting": "[1]; 72 hours", "result": 0.302}, {"measurement": "MTS assay result, run 6", "setting": "[1]; 72 hours", "result": 0.279}, {"measurement": "MTS assay result, run 7", "setting": "[1]; 72 hours", "result": 0.25}, {"measurement": "MTS assay result, run 8", "setting": "[1]; 72 hours", "result": 0.254}, {"measurement": "MTS assay result, run 9", "setting": "[1]; 72 hours", "result": 0.273}, {"measurement": "rel amt (relative value set to the control)", "setting": "MiaPaCa-2 cells; 48 hours", "result": 94}, {"measurement": "MTT assay result, av-blank", "setting": "MiaPaCa-2 cells; 48 hours", "result": 0.292}, {"measurement": "MTT assay result, av", "setting": "MiaPaCa-2 cells; 48 hours", "result": 0.338}, {"measurement": "MTT assay result, run 1", "setting": "MiaPaCa-2 cells; 48 hours", "result": 0.349}, {"measurement": "MTT assay result, run 2", "setting": "MiaPaCa-2 cells; 48 hours", "result": 0.341}, {"measurement": "MTT assay result, run 3", "setting": "MiaPaCa-2 cells; 48 hours", "result": 0.356}, {"measurement": "MTT assay result, run 4", "setting": "MiaPaCa-2 cells; 48 hours", "result": 0.329}, {"measurement": "MTT assay result, run 5", "setting": "MiaPaCa-2 cells; 48 hours", "result": 0.349}, {"measurement": "MTT assay result, run 6", "setting": "MiaPaCa-2 cells; 48 hours", "result": 0.316}, {"measurement": "MTT assay result, run 7", "setting": "MiaPaCa-2 cells; 48 hours", "result": 0.323}, {"measurement": "rel amt (relative value set to the control)", "setting": "MiaPaCa-2 cells; 120 hours (5 days)", "result": 84}, {"measurement": "MTT assay result, av-blank", "setting": "MiaPaCa-2 cells; 120 hours (5 days)", "result": 1.528}, {"measurement": "MTT assay result, av", "setting": "MiaPaCa-2 cells; 120 hours (5 days)", "result": 1.580}, {"measurement": "MTT assay result, run 1", "setting": "MiaPaCa-2 cells; 120 hours (5 days)", "result": 1.497}, {"measurement": "MTT assay result, run 2", "setting": "MiaPaCa-2 cells; 120 hours (5 days)", "result": 1.573}, {"measurement": "MTT assay result, run 3", "setting": "MiaPaCa-2 cells; 120 hours (5 days)", "result": 1.569}, {"measurement": "MTT assay result, run 4", "setting": "MiaPaCa-2 cells; 120 hours (5 days)", "result": 1.55}, {"measurement": "MTT assay result, run 5", "setting": "MiaPaCa-2 cells; 120 hours (5 days)", "result": 1.811}, {"measurement": "MTT assay result, run 6", "setting": "MiaPaCa-2 cells; 120 hours (5 days)", "result": 1.589}, {"measurement": "MTT assay result, run 7", "setting": "MiaPaCa-2 cells; 120 hours (5 days)", "result": 1.47}]}]}
